# Tests used:
# Experiment in all cases: relative viability (nuclei count vs DMSO), 5 days (fraction); higher = more cells survive
# Afatinib = compound: CN(C)C/C=C/C(=O)Nc1cc2c(Nc3ccc(F)c(Cl)c3)ncnc2cc1O[C@H]1CCOC1 [Afatinib]
# In short: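 After an overnight hold at 37 °C, lung cancer cell lines in 1536-well plates were pinned with five library-drug doses (not always all listed), each √10 from the next, on vehicle-anchored plates. The cells stayed 5 days without fresh medium, then a one-step fix, permeabilisation and Hoechst stain preceded 4× imaging and MetaXpress nuclear counts. A plate passed only with control CV under 25% and at least one doubling. Viability is the median, over plates, of treated-well nuclei relative to vehicle-well nuclei.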
# Afatinib + Trametinib = compound: CN(C)C/C=C/C(=O)Nc1cc2c(Nc3ccc(F)c(Cl)c3)ncnc2cc1O[C@H]1CCOC1 [Afatinib] + CC(=O)Nc1cccc(-n2c(=O)n(C3CC3)c(=O)c3c(Nc4ccc(I)cc4F)n(C)c(=O)c(C)c32)c1 [Trametinib] (partner 0.02 µM)
# In short: (§1)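 A single step with final 0.05% Triton X-100, 1% formaldehyde and 1 ug/ml Hoechst fixed the cells and stained nuclei 5 days after treatment. Lung cancer cell lines in 1536-well plates had been treated by pin tool the day after seeding with one drug alone or a fixed anchor-drug dose plus five library-drug doses (not always all listed) in √10 steps, and nuclei were counted on 4× images. Relative viability is the ratio of nuclei in treated wells to nuclei in vehicle wells, taken as the median of duplicate plates.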
# Afatinib + Palbociclib = compound: CN(C)C/C=C/C(=O)Nc1cc2c(Nc3ccc(F)c(Cl)c3)ncnc2cc1O[C@H]1CCOC1 [Afatinib] + CC(=O)c1c(C)c2cnc(Nc3ccc(N4CCNCC4)cn3)nc2n(C2CCCC2)c1=O [Palbociclib] (partner 0.5 µM)
# In short: as §1
# Afatinib + Luminespib = compound: CN(C)C/C=C/C(=O)Nc1cc2c(Nc3ccc(F)c(Cl)c3)ncnc2cc1O[C@H]1CCOC1 [Afatinib] + CCNC(=O)c1noc(-c2cc(C(C)C)c(O)cc2O)c1-c1ccc(CN2CCOCC2)cc1 [Luminespib] (partner 0.01 µM)
# In short: as §1
# Afatinib + Foretinib = compound: CN(C)C/C=C/C(=O)Nc1cc2c(Nc3ccc(F)c(Cl)c3)ncnc2cc1O[C@H]1CCOC1 [Afatinib] + COc1cc2c(Oc3ccc(NC(=O)C4(C(=O)Nc5ccc(F)cc5)CC4)cc3F)ccnc2cc1OCCCN1CCOCC1 [Foretinib] (partner 0.25 µM)
# In short: as §1
# Afatinib + OSI-027 = compound: CN(C)C/C=C/C(=O)Nc1cc2c(Nc3ccc(F)c(Cl)c3)ncnc2cc1O[C@H]1CCOC1 [Afatinib] + COc1cccc2cc(-c3nc([C@H]4CC[C@H](C(=O)O)CC4)n4ncnc(N)c34)[nH]c12 [OSI-027] (partner 0.5 µM)
# In short: as §1
# Afatinib + Tozasertib = compound: CN(C)C/C=C/C(=O)Nc1cc2c(Nc3ccc(F)c(Cl)c3)ncnc2cc1O[C@H]1CCOC1 [Afatinib] + Cc1cc(Nc2cc(N3CCN(C)CC3)nc(Sc3ccc(NC(=O)C4CC4)cc3)n2)n[nH]1 [Tozasertib] (partner 0.1 µM)
# In short: as §1
# Afatinib + Dasatinib = compound: CN(C)C/C=C/C(=O)Nc1cc2c(Nc3ccc(F)c(Cl)c3)ncnc2cc1O[C@H]1CCOC1 [Afatinib] + Cc1nc(Nc2ncc(C(=O)Nc3c(C)cccc3Cl)s2)cc(N2CCN(CCO)CC2)n1 [Dasatinib] (partner 0.075 µM)
# In short: as §1
# Afatinib + Phenformin = compound: CN(C)C/C=C/C(=O)Nc1cc2c(Nc3ccc(F)c(Cl)c3)ncnc2cc1O[C@H]1CCOC1 [Afatinib] + N=C(N)NC(=N)NCCc1ccccc1 [Phenformin] (partner 250 µM)
# In short: as §1
# Afatinib + AZD7762 = compound: CN(C)C/C=C/C(=O)Nc1cc2c(Nc3ccc(F)c(Cl)c3)ncnc2cc1O[C@H]1CCOC1 [Afatinib] + NC(=O)Nc1cc(-c2cccc(F)c2)sc1C(=O)N[C@H]1CCCNC1 [AZD7762] (partner 0.2 µM)
# In short: as §1
# Afatinib + Pemetrexed = compound: CN(C)C/C=C/C(=O)Nc1cc2c(Nc3ccc(F)c(Cl)c3)ncnc2cc1O[C@H]1CCOC1 [Afatinib] + Nc1nc2[nH]cc(CCc3ccc(C(=O)N[C@@H](CCC(=O)O)C(=O)O)cc3)c2c(=O)[nH]1 [Pemetrexed] (partner 0.2 µM)
# In short: as §1
# Afatinib + Decitabine = compound: CN(C)C/C=C/C(=O)Nc1cc2c(Nc3ccc(F)c(Cl)c3)ncnc2cc1O[C@H]1CCOC1 [Afatinib] + Nc1ncn([C@H]2C[C@H](O)[C@@H](CO)O2)c(=O)n1 [Decitabine] (partner 2 µM)
# In short: as §1
# Afatinib + Vorinostat = compound: CN(C)C/C=C/C(=O)Nc1cc2c(Nc3ccc(F)c(Cl)c3)ncnc2cc1O[C@H]1CCOC1 [Afatinib] + O=C(CCCCCCC(=O)Nc1ccccc1)NO [Vorinostat] (partner 1 µM)
# In short: as §1
# Afatinib + Olaparib = compound: CN(C)C/C=C/C(=O)Nc1cc2c(Nc3ccc(F)c(Cl)c3)ncnc2cc1O[C@H]1CCOC1 [Afatinib] + O=C(c1cc(Cc2n[nH]c(=O)c3ccccc23)ccc1F)N1CCN(C(=O)C2CC2)CC1 [Olaparib] (partner 8 µM)
# In short: as §1
cell line,measurement,setting,value
SW 900,relative viability,Afatinib; 0.005 µM,0.951
same,relative viability,Afatinib; 0.01581 µM,0.692
same,relative viability,Afatinib; 0.05 µM,0.844
same,relative viability,Afatinib; 0.1581 µM,0.872
same,relative viability,Afatinib; 0.5 µM,0.828
same,relative viability,Afatinib + Trametinib; first compound 0.005 µM,0.572
same,relative viability,Afatinib + Trametinib; first compound 0.01581 µM,0.657
same,relative viability,Afatinib + Trametinib; first compound 0.05 µM,0.759
same,relative viability,Afatinib + Trametinib; first compound 0.1581 µM,0.745
same,relative viability,Afatinib + Trametinib; first compound 0.5 µM,0.581
same,relative viability,Afatinib + Palbociclib; first compound 0.005 µM,0.464
same,relative viability,Afatinib + Palbociclib; first compound 0.01581 µM,0.354
same,relative viability,Afatinib + Palbociclib; first compound 0.05 µM,0.438
same,relative viability,Afatinib + Palbociclib; first compound 0.1581 µM,0.43
same,relative viability,Afatinib + Palbociclib; first compound 0.5 µM,0.49
same,relative viability,Afatinib + Luminespib; first compound 0.005 µM,0.182
same,relative viability,Afatinib + Luminespib; first compound 0.01581 µM,0.198
same,relative viability,Afatinib + Luminespib; first compound 0.1581 µM,0.187
same,relative viability,Afatinib + Luminespib; first compound 0.5 µM,0.173
same,relative viability,Afatinib + Foretinib; first compound 0.005 µM,1.06
same,relative viability,Afatinib + Foretinib; first compound 0.01581 µM,1.18
same,relative viability,Afatinib + Foretinib; first compound 0.05 µM,0.873
same,relative viability,Afatinib + Foretinib; first compound 0.1581 µM,0.725
same,relative viability,Afatinib + Foretinib; first compound 0.5 µM,0.679
same,relative viability,Afatinib + OSI-027; first compound 0.005 µM,0.668
same,relative viability,Afatinib + OSI-027; first compound 0.01581 µM,0.395
same,relative viability,Afatinib + OSI-027; first compound 0.05 µM,0.605
same,relative viability,Afatinib + OSI-027; first compound 0.1581 µM,0.639
same,relative viability,Afatinib + OSI-027; first compound 0.5 µM,0.347
same,relative viability,Afatinib + Tozasertib; first compound 0.005 µM,0.576
same,relative viability,Afatinib + Tozasertib; first compound 0.01581 µM,0.646
same,relative viability,Afatinib + Tozasertib; first compound 0.05 µM,0.61
same,relative viability,Afatinib + Tozasertib; first compound 0.1581 µM,0.438
same,relative viability,Afatinib + Tozasertib; first compound 0.5 µM,0.444
same,relative viability,Afatinib + Dasatinib; first compound 0.005 µM,0.622
same,relative viability,Afatinib + Dasatinib; first compound 0.01581 µM,0.323
same,relative viability,Afatinib + Dasatinib; first compound 0.05 µM,0.683
same,relative viability,Afatinib + Dasatinib; first compound 0.1581 µM,0.547
same,relative viability,Afatinib + Dasatinib; first compound 0.5 µM,0.435
same,relative viability,Afatinib + Phenformin; first compound 0.005 µM,0.642
same,relative viability,Afatinib + Phenformin; first compound 0.01581 µM,0.499
same,relative viability,Afatinib + Phenformin; first compound 0.05 µM,0.682
same,relative viability,Afatinib + Phenformin; first compound 0.1581 µM,0.486
same,relative viability,Afatinib + Phenformin; first compound 0.5 µM,0.399
same,relative viability,Afatinib + AZD7762; first compound 0.005 µM,0.48
same,relative viability,Afatinib + AZD7762; first compound 0.01581 µM,0.546
same,relative viability,Afatinib + AZD7762; first compound 0.05 µM,0.615
same,relative viability,Afatinib + AZD7762; first compound 0.1581 µM,0.501
same,relative viability,Afatinib + AZD7762; first compound 0.5 µM,0.548
same,relative viability,Afatinib + Pemetrexed; first compound 0.005 µM,0.467
same,relative viability,Afatinib + Pemetrexed; first compound 0.01581 µM,0.445
same,relative viability,Afatinib + Pemetrexed; first compound 0.05 µM,0.497
same,relative viability,Afatinib + Pemetrexed; first compound 0.1581 µM,0.487
same,relative viability,Afatinib + Pemetrexed; first compound 0.5 µM,0.448
same,relative viability,Afatinib + Decitabine; first compound 0.005 µM,0.502
same,relative viability,Afatinib + Decitabine; first compound 0.01581 µM,0.334
same,relative viability,Afatinib + Decitabine; first compound 0.05 µM,0.378
same,relative viability,Afatinib + Decitabine; first compound 0.1581 µM,0.398
same,relative viability,Afatinib + Decitabine; first compound 0.5 µM,0.443
same,relative viability,Afatinib + Vorinostat; first compound 0.005 µM,0.597
same,relative viability,Afatinib + Vorinostat; first compound 0.01581 µM,0.364
same,relative viability,Afatinib + Vorinostat; first compound 0.05 µM,0.544
same,relative viability,Afatinib + Vorinostat; first compound 0.1581 µM,0.428
same,relative viability,Afatinib + Vorinostat; first compound 0.5 µM,0.461
same,relative viability,Afatinib + Olaparib; first compound 0.005 µM,0.757
same,relative viability,Afatinib + Olaparib; first compound 0.01581 µM,0.726
same,relative viability,Afatinib + Olaparib; first compound 0.05 µM,0.89
same,relative viability,Afatinib + Olaparib; first compound 0.1581 µM,0.664
same,relative viability,Afatinib + Olaparib; first compound 0.5 µM,0.77

# From the supplement of paper PMC10307832
